Assay results published in patent publication US7015228B2, “4-amino-2-(2-pyridyl)pyrimidines as microbicidal active substances” (Ciba Specialty Chemicals Corporation, priority 2001, dated 2006).
Converted amounts (≈) assume the structure as drawn.

Legend:
[1] = tested on: S. choleraesuis ATCC 10708; assay: Determination of the bactericidal activity (logarithmic reduction in organism count); format: cell-based, Salmonella choleraesuis; details: contact for 30 minutes at a substance concentration of 120 μg/mL
Method: (§1) Determination of the Bactericidal Activity of Selected Compounds
(§2) Casein-soybean flour-peptone broth for preparation of pre-cultures of test bacteria
(§3) Examples of Test Organisms:
(§4) • Staphylococcus aureus ATCC 6538 • Escherichia coli ATCC 10536 • Salmonella choleraesuis ATCC 10708 Procedure:
(§5) The test substances are dissolved in dimethyl sulfoxide (DMSO) and tested in a concentration of 120 μg/ml.
(§6) Bacteria are incubated overnight in CASO broth and adjusted to an organism count of 1–5×10^5 CFU/ml using 0.85% sodium chloride solution.
(§7) The test substances are pre-pipetted into microtitre plates in amounts of 8 μl per well.
(§8) The adjusted test organism suspensions are added in amounts of 192 μl per well to the test substances and mixed. After defined contact times, the test batches are mixed, an aliquot is withdrawn and diluted in several steps in a dilution series of 1:10 in a suitable inactivation medium.
The test plates are incubated for 24 hours at 37° C. […]
(§9) One microtitre plate is used for each test organism.
(§10) All the substances are tested in duplicate.

E. coli NCTC 8196 = assay: as above; format: cell-based, Escherichia coli; details: contact for 30 minutes at a substance concentration of 120 μg/mL
S. aureus ATCC 6538 = assay: as above; format: cell-based, Staphylococcus aureus; details: contact for 30 minutes at a substance concentration of 120 μg/mL
Method: as §1, §2, §3, §4, §5, §6, §7, §8
The test plates are incubated for 24 hours at 37° C.
(§11) After incubation, the growth is determined on the basis of the turbidity of the test batches (optical density) at 620 nm in a microplate reader.
as §9, §10

[2] = tested on: Escherichia coli NCTC 8196; assay: Minimum inhibitory concentration (MIC) in microtitre plates; format: cell-based; details: for Minimum inhibitory concentration (MIC) E. coli: Table 7, 48 hours at 37° C., MIC = ≦20% growth compared to control; for Minimum inhibitory concentration (MIC) E. coli NCTC 8196: Table 8, * = significant inhibition of growth, but not complete inhibition
Outline: (§12)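 Compounds in DMSO, 1:2 dilution series; bacteria at 1–5×10^6 CFU/ml diluted 1:100 in CASO broth. Incubation 48 h at 37° C, growth read as OD 620 nm. MIC is the lowest concentration giving ≤20% growth relative to control; duplicates.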

[3] = tested on: Staphylococcus hominis DMS 20328; assay: as above; format: cell-based; details: Table 7; 48 hours at 37° C.; MIC = ≦20% growth compared to control
Outline: as §12

[4] = tested on: Aspergillus niger ATCC 6275; assay: Minimum inhibitory concentration (MIC), further microorganisms; format: cell-based; details: Table 8; * = significant inhibition of growth, but not complete inhibition
Method: (§13) Determination of the Minimum Inhibitory Concentration (MIC Value) in Microtitre Plates
(§14) Casein-soybean flour-peptone broth for preparation of pre-cultures of test bacteria and yeast.
(§15) Mycological slant agar for the pre-culture of moulds
(§16) The test substances are pre-dissolved in dimethyl sulfoxide (DMSO) and tested in a dilution series of 1:2.
(§17) Bacteria and yeast are cultured overnight in CASO broth, the mould is cultured overnight on mycological slant agar, and washed off using 10 ml of 0.85% sodium chloride solution (+0.1% Triton X-100).
(§18) All the test organisms are adjusted to an organism count of 1–5×10^6 CFU/ml using 0.85% sodium chloride solution.
as §7
(§19) Pre-diluted organism suspensions are diluted 1:100 in CASO broth (bacteria and yeast) or Sabouraud 2% glucose broth (mould) and are added in amounts of 192 μl per well to the test substances.
(§20) The test batches are incubated for 48 hours at 37° C. (bacteria and yeast) or for 5 days at 28° C. (mould).
as §11
(§21) The minimum inhibitory concentration (MIC value) is the concentration of substance at which there is found (compared to the growth of the control) an appreciable inhibition of growth (≦20% growth) of the test organisms.
(§22) One microtitre plate is used for each test organism and substance concentration. All the substances are tested in duplicate.

[5] = tested on: Candida albicans ATCC 10231; assay: as above; format: cell-based; details: Table 8; * = significant inhibition of growth, but not complete inhibition
Method: as §13, §14, §15, §16, §17, §18, §7, §19, §20, §11, §21, §22

[6] = tested on: Enterococcus hirae ATCC 10541; assay: as above; format: cell-based; details: Table 8; * = significant inhibition of growth, but not complete inhibition
Method: as §13, §14, §15, §16, §17, §18, §7, §19, §20, §11, §21, §22

[7] = tested on: Epidermophyton floccosum DSM 10709; assay: as above; format: cell-based; details: Table 8; * = significant inhibition of growth, but not complete inhibition
Method: as §13, §14, §15, §16, §17, §18, §7, §19, §20, §11, §21, §22

[8] = tested on: Klebsiella pneumonia ATCC 4352; assay: as above; format: cell-based; details: Table 8; * = significant inhibition of growth, but not complete inhibition
Method: as §13, §14, §15, §16, §17, §18, §7, §19, §20, §11, §21, §22

[9] = tested on: Micrococcus luteus ATCC 9341; assay: as above; format: cell-based; details: Table 8; * = significant inhibition of growth, but not complete inhibition
Method: as §13, §14, §15, §16, §17, §18, §7, §19, §20, §11, §21, §22

[10] = tested on: Pseudomonas aeruginosa CIP A-22; assay: as above; format: cell-based; details: Table 8
Method: as §13, §14, §15, §16, §17, §18, §7, §19, §20, §11, §21, §22

[11] = tested on: S. epidermidis ATCC 12228; assay: as above; format: cell-based; details: Table 8; * = significant inhibition of growth, but not complete inhibition
Method: as §13, §14, §15, §16, §17, §18, §7, §19, §20, §11, §21, §22

[12] = tested on: Salmonella choleraesuis ATCC 10708; assay: as above; format: cell-based; details: Table 8
Method: as §13, §14, §15, §16, §17, §18, §7, §19, §20, §11, §21, §22

[13] = tested on: Staphylococcus aureus ATCC 9144; assay: as above; format: cell-based; details: Table 8; * = significant inhibition of growth, but not complete inhibition
Method: as §13, §14, §15, §16, §17, §18, §7, §19, §20, §11, §21, §22

[14] = tested on: Trichophyton mentagrophytes ATCC 9533; assay: as above; format: cell-based; details: Table 8; * = significant inhibition of growth, but not complete inhibition
Method: as §13, §14, §15, §16, §17, §18, §7, §19, §20, §11, §21, §22

Structure (SMILES) | Logarithmic reduction in organism count, S. choleraesuis ATCC 10708 [1] | Logarithmic reduction in organism count, E. coli NCTC 8196 (E. coli NCTC 8196) | Logarithmic reduction in organism count, S. aureus ATCC 6538 (S. aureus ATCC 6538) [log] | Minimum inhibitory concentration (MIC) E. coli [2] [µg/mL] | Minimum inhibitory concentration (MIC) E. coli NCTC 8196 [2] [µg/mL] | Minimum inhibitory concentration (MIC) S. hominis [3] [µg/mL] | Minimum inhibitory concentration (MIC) Aspergillus niger ATCC 6275 [4] [µg/mL] | Minimum inhibitory concentration (MIC) Candida albicans ATCC 10231 [5] | Minimum inhibitory concentration (MIC) Enterococcus hirae ATCC 10541 [6] [µg/mL] | Minimum inhibitory concentration (MIC) Epidermophyton floccosum DSM 10709 [7] | Minimum inhibitory concentration (MIC) Klebsiella pneumonia ATCC 4352 [8] [µg/mL] | Minimum inhibitory concentration (MIC) Micrococcus luteus ATCC 9341 [9] [µg/mL] | Minimum inhibitory concentration (MIC) Pseudomonas aeruginosa CIP A-22 [10] [µg/mL] | Minimum inhibitory concentration (MIC) S. epidermidis ATCC 12228 [11] | Minimum inhibitory concentration (MIC) Salmonella choleraesuis ATCC 10708 [12] [µg/mL] | Minimum inhibitory concentration (MIC) Staphylococcus aureus ATCC 9144 [13] [µg/mL] | Minimum inhibitory concentration (MIC) Trichophyton mentagrophytes ATCC 9533 [14] [µg/mL]
CCCCCCCCCCCNc1cc(C(C)C)nc(-c2ccccn2)n1 [Compound of formula 98] | 2–3 log | 1–2 log | 1 |  |  |  |  |  |  |  |  |  |  |  |  |  | 
CCCCCCCCCCCCCCCNc1cc(C(C)C)nc(-c2ccccn2)n1 [Compound of formula 99] | <1 log | ≦1 log | 2 |  |  |  |  |  |  |  |  |  |  |  |  |  | 
CCc1c(C)nc(-c2ccccn2)nc1NCCCCCCCCCCCCN [compound 7] |  |  |  | 120 (≈ 302 µM) | >60 | 120 (≈ 302 µM) | >30 | >60 µg/mL | >60 | >30 µg/mL | >60 | >60 | >60 | >60 µg/mL | >60 | >60 | >30
CCCCCCCCCCCCNc1nc(-c2ccccn2)nc(C)c1CC [compound 12] |  |  |  | 120 (≈ 314 µM) | >60 | 7.5 (≈ 19.6 µM) | >60 | *60 μg/mL | 7.5 (≈ 19.6 µM) | *30 μg/mL | >60 | <3.75 | >60 | *7.5 μg/mL | >60 | 15 (≈ 39.2 µM) | 60 (≈ 157 µM)
